The values that follow come from patent US20240400579A1, “SPIROCYCLIC MODULATORS OF CHOLESTEROL BIOSYNTHESIS AND THEIR USE FOR PROMOTING REMYELINATION” (GENENTECH, INC., priority 2021, published 2024).

The target in test [1] is human emopamil binding protein and human 7-dehydrocholesterol reductase co-expressing cell membrane (Homo sapiens (Human), UniProt Q15125). As to the kind of experiment: hEBP-DHCR7 radioligand filtration binding assay with [3H]-Compound 118A*. Conditions: radioligand [3H]-Compound 118A*; HEK293 membrane co-expressing hEBP and DHCR7. An outline of the steps: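 HEK293 membranes transiently co-expressing hEBP and hDHCR7 (10 μg/well) were incubated with [3H]-Compound 118A* (added at 25 nM) and compounds (8 doses, final 0.06–5000 nM, n=2) for 3 h at 22 °C. Bound radioactivity was read after PEI-treated GF/B filtration. IC50 came from a Hill fit of % inhibition and was converted to Ki.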
Sequence of human emopamil binding protein and human 7-dehydrocholesterol reductase co-expressing cell membrane (Q15125 whole entry): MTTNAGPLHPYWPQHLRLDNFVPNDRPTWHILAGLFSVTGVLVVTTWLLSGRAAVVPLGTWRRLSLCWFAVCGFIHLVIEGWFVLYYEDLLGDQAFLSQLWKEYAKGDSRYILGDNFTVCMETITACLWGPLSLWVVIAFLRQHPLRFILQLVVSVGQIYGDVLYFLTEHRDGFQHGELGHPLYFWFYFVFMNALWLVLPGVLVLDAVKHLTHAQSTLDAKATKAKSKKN

For test [2], the system named is zymostenol accumulation in EpiSC-derived OPCs (EBP). Nature of the test: GC/MS-based sterol profiling, zymostenol accumulation. The settings on record: Mus musculus, 24 h, 8 doses from 0.15 nM to 333 nM, read-out: mZymo GCMS EC50. The format is cell-based, mouse. An outline of the steps: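 EpiSC-derived mouse OPCs plated at 100,000 cells/well in N2B27 without growth factors and treated 24 h. Sterols extracted, silylated with BSTFA and measured by GC/MS (EI, full scan), quantified against cholesterol-d7. Zymostenol normalized to levels after 24 h with 100 nM positive control reference.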

A further test concerns EpiSC-derived OPCs. As to the kind of experiment: In vitro phenotypic screening of OPCs, MBP high-content imaging. The settings on record: Mus musculus, 72 h, percentage of MBP+ oligodendrocytes; 3 days; 0.5 nM to 1000 nM; read-out: mOPC EC50. Type of test: cell-based, mouse. An outline of the steps: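 Mouse EpiSC-derived OPCs seeded without growth factors and exposed 3 days at 37° C. to 8-point doses, 1000 nM to 0.5 nM final. Fixed cells stained for MBP and DAPI; high-content imaging gave percentage MBP+ oligodendrocytes, with EC50 from Hill-equation fit.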

As a reminder, the Ki is the dissociation constant of the complex between target and ligand, obtained from inhibition or displacement. By EC50 is commonly meant the concentration needed to bring the measured effect to its halfway point. In test [1], `C[C@@H](Cc1cnc(C(F)(F)F)nc1)CN1CCC2(CC1)CS(=O)(=O)C2` (single isomer, unassigned) [215A*] had a Ki of 105 nM. Also, the EC50 worked out at 13 nM in test [2] and 23 nM in the test with EpiSC-derived OPCs.
